Patent US9868767B2, “Chemical synthesis and screening of bicyclic peptide libraries” (OHIO STATE INNOVATION FOUNDATION, priority 2013, dated 2018)
Entries after “also recorded” stand apart in the source; their conditions may differ. Read-outs that look alike come from different tables or passages of the source. Bridges are numbered along the chain shown (N, C = ends). Primed or numbered codes have the meaning given here. Where no end group is shown, it is not given here. [ ]: non-standard residue; d: D form. trimesoyl″ = trimesic acid scaffold joined by three amide bonds; Nal = naphthylalanine (isomer not specified); pY = N[C@@H](Cc1ccc(OP(=O)(O)O)cc1)C(=O)O; Phg = N[C@H](C(=O)O)c1ccccc1; Pra = C#CC[C@H](N)C(=O)O; dNal = D-naphthylalanine; Dap = NC[C@H](N)C(=O)O

Experiments:
[1] = molecular target: T1, K-Ras (Homo sapiens, UniProt P01116, G12V); assay: Competition between labeled peptide 2 and DCAI for K-Ras; format: binding
T1 construct: GST; made in house

[2] = test system: H358 lung cancer cells; assay: MTT assay, growth of H358 cells; format: cell-based
Procedure: FIG. 23a, b show on-bead assay of inhibition of Ras-Raf interaction by cyclorasin B3.
Cyclorasin B2-B4 were tested for inhibition of cell proliferation by the MTT assay.

[3] = molecular target: T2, human TNFα (Homo sapiens, UniProt P01375); assay: Fluorescence anisotropy (FA) binding to TNFα; conditions: resynthesized, FITC-labeled, HPLC-purified peptide
T2 construct: extracellular domain of human TNFα (aa 77-233); made in house; host or cells: E. coli BL21(DE3)

[4] = test system: WEHI-13VAR fibroblasts
[5] = molecular target: Ras-Raf interaction (Homo sapiens, UniProt P01116); assay: Qualitative on-bead assay of Ras-Raf interaction; format: binding; conditions: 10 μM peptide, Texas red-labeled K-Ras, immobilized GST-Raf
[6] = molecular target: K-Ras (Homo sapiens, UniProt P01116); assay: FA-based competition assay for binding to K-Ras
[7] = test system: WEHI-13VAR fibroblasts; conditions: in the presence of actinomycin-D; Khabar et al.; cited from earlier work
[8] = test system: H1299 lung cancer cells; assay: MTT proliferation assay; format: cell-based
Procedure: One hundred μL of H1299 cells (0.5×10^5 cells/mL) were placed in each well of a 96-well culture plate and allowed to grow overnight. […] Ten μL of a MTT stock solution (5 mg/ml) was added into each well. The plate was incubated at 37° C. for 4 h. Then 100 μL of SDS-HCl solubilizing buffer was added into each well, and the resulting solution was mixed thoroughly. The plate was incubated at 37° C. overnight. The absorbance of the formazan product was measured at 570 nm using a Molecular Devices Spectramax M5 plate reader. Cells treated with DMSO were used as control.

[9] = molecular target: T1, K-Ras; assay: FA binding to K-Ras (Example 4 DCAI-bearing bicyclic peptides); conditions: FAM- or FITC-labeled peptide; NB = no binding
Description: To confirm the screening results, four hit sequences (peptides A2, A8, B5 and B8; hereafter named as peptides 1-4) were selected for resynthesis and tested for binding to K-Ras in solution by fluorescence anisotropy. The peptides were synthesized on Rink Amide resin, cleaved, deprotected, and purified by reversed-phase HPLC. Each peptide contains a Lys outside of the bicyclic rings to serve as the point of labeling with an amine-reactive fluorescent dye (FAM-NHS or FITC).

[10] = molecular target: T3, TNFα-TNFR1 interaction (Homo sapiens, UniProt P01375); assay: TNFα-TNFR1 interaction ELISA (HRP-TNFR1, immobilized TNFα); conditions: read-out: IC50, inhibition of TNF-alpha binding to its cognate receptor
T3 construct: extracellular domain of human TNFα (aa 77-233); host or cells: E. coli BL21(DE3) (TNFα)
Procedure: Recombinant TNFR1 was purchased from R&D Systems. EZ-Link Plus activated peroxidase, an amine-reactive form of HRP was purchased from Thermo Scientific. TNFR1 was labeled with HRP by combining 50 μL of TNFR1 (1.0 μM) and 4 μL of HRP […], of Na2CO3 buffer (0.2 M Na2CO3, 0.15 M NaCl, pH 9.0) for 1 h. The resulting TNFR1-HRP conjugate was treated with NaCNBH3 to reduce the resulting Schiff base and quenched with 20 μl of ethanolamine. A Nunc 96F Maxisorp plate was coated overnight with 100 μL of […] Neutravidin (in 50 mM Na2CO3, pH 9.0) at 4° C. The solution was removed and each well was washed with 100 μL of the blocking buffer containing 3% BSA. […] The absorbance at 450 nm was measured and plotted against the peptide concentration and the IC50 value was obtained by curve fitting.
TNFα signaling begins with the binding of the TNFα trimer to the extracellular domain of TNFR1, triggering the release of the inhibitory protein, silencer of death domains (SODD), from the intracellular domain of TNFR1 (Chen, G and Goeddel, D V. Science, 2002, 296, 1634-1635). […] After washing, the amount of HRP-TNFR1 bound to each well was quantitated by ELISA using 3,3′,5,5′-tetramethylbenzidine (TMB) as HRP substrate, which was converted into 3,3′,5,5′-tetramethylbenzidine diimine by HRP resulting in absorbance at 450 nm (Martin, T L et al. J. Histochem. Cytochem., 1984, 32, 793).

[11] = molecular target: Ras-GTP (Homo sapiens, UniProt P01116); assay: FA binding to K-Ras loaded with GTP
[12] = molecular target: GST-FKBP12 fusion protein (Homo sapiens, UniProt P62942); assay: FA binding to GST-FKBP12

## Cc1[nH]c2cc(Cl)cc(Cl)c2c1CCN [DCAI, 4,6-dichloro-2-methyl-3-aminoethyl-indole]
[1]
  IC50: 1400 µM

## CCCCCCCC/C=C\CCCCCCCC(=O)NCCCC[C@H](NC(=O)[C@@H]1CNC(=O)c2cc3cc(c2)C(=O)NC(Cc2ccc4ccccc4c2)C(=O)N[C@@H](CO)C(=O)N[C@@H](CCC(N)=O)C(=O)NC(Cc2ccc4ccccc4c2)C(=O)N[C@@H](c2ccccc2)C(=O)N[C@@H](CCCCNC3=O)C(=O)N[C@H](Cc2ccccc2)C(=O)N[C@@H](CCCNC(=N)N)C(=O)N[C@H](C(C)C)C(=O)NC(CCCNC(=N)N)C(=O)N1)C(N)=O (some centres unmarked) [oleiylated cyclorasin B3]
[2]
  anti-proliferative activity against H358 lung cancer cells: modest anti-proliferative activity

## Bicyclo(Arg-Arg-Arg-Arg-Nal-Phe-Dap-S er-D-Val-Pro-pTyr-His-Dap) (RRRR[Nal]F[Dap]S[dV]P[pY]H[Dap]; linker N-7-13 via trimesic acid (inferred)) [control bicyclic peptide, reference compound]
[3]
  KD for TNFα: no detectable binding
[4]; TNFα 0.04 ng/mL, peptide 0-25 μM, actinomycin D
  protection of cells from TNFα-induced cell death: no protective effect

## Orn-Arg-nal-Arg-Fpa-Lys-phe-glu-Gly-Dap [Hit 105B]
[5]
  effect on Ras-Raf interaction (bead staining): completely abolished
[6]
  inhibition of binding of (FITC-labeled) cyclorasin B4 to K-Ras: inhibited the binding of FITC-labeled B4 to K-Ras

## TNFα: Tumor necrosis factor-alpha, cytokine used to induce cell death
[7]
  LD50 range of TNFα: 0.005 to 0.065 ng/mL
[4]; TNFα 0-250 ng/mL
  LD50 of TNFα in the absence of TNFα inhibitor: 0.46 ng/mL

## bicyclo(Ala-d-Leu-Phe-Arg-d-Asn-Pra-Ile-Asp-K-FNalR4-Dap)-K [Peptide 41]
[8]; 24-hour treatment, peptide 0-40 μM, read-out: ED50, anti-proliferative activity
  EC50: ~9 µM
[8]; 72 h, read-out: ED50, cell growth inhibition
  EC50: ~7 µM

## bicyclo(Arg-Asp-Phg-Pra-d-Asn-K-FNalR4-Dap)-K (RD[Phg][Pra][dN]KF[dNal]RRRR[Dap]K-NH2; linker N-6-13 via trimesoyl″ (inferred); not fully specified; printed as bicyclo(Arg-Asp-Phg-Pra-d-Asn-K-FNalR4-Dap)-K) [Peptide 1]
[9]
  KD for K-Ras: does not bind

## bicyclo(Phg-Tyr-D-Ala-Lys-Tyr-D-Phe-Gly-D-Lys-His-Dap) [Necrostatin C1]
[3]
  Kd: 0.45 µM
[10]
  IC50: 3.1 µM
[4]; TNFα 0-250 ng/mL
  LD50 of TNFα in the presence of 50 μM Necrostatin C1: 1.8 ng/mL

## nal-Ser-Gln-nal-Phg-Lys-phe-Arg-val-Arg-Dap [Hit 82]
[11]
  fold higher affinity for Ras-GTP and Ras-GPPNP than Ras-GDP: approximately 8 fold
[5]; listed as cyclorasin B3
  effect on Ras-Raf interaction (bead staining): completely abolished; also recorded: abolished Ras-Raf interaction
[12]
  binding to GST-FKBP12: very weakly
